We go through 13 molecules from paper PMC11647681, “Discovery of Non-Covalent Inhibitors for SARS-CoV-2 PLpro: Integrating Virtual Screening, Synthesis, and Experimental Validation” (ACS Medicinal Chemistry Letters, 2024).

In brackets after ≈: the same amount, converted by molar mass. Several values for one entry are separate records, joined by “and”; a condition that tells them apart may be missing. Identical values can stand only once. Like-named read-outs stand apart in the source and are kept apart here.

A short description of data set [1]: in vitro. The following applies: chlorocebus sabaeus.
Data set [2] in a line: in vitro. The following applies: human.
Another data set addresses SARS-CoV-2 PLpro (Severe acute respiratory syndrome coronavirus 2, UniProt P0DTD1). As to the kind of experiment: SARS-CoV-2 PLpro inhibition assay (enzymatic, LKGG-AMC substrate). It is filed as biochemical. The following applies: for Ki: Hanes-Woolf plot; for Ki / inhibition mechanism: kinetic characterization; for IC50: enzymatic assay.
The conditions of data set [3]: mouse, microsomes, 0.5 h; cited from earlier work.
The conditions of data set [4]: rat, microsomes, 0.5 h; cited from earlier work.
A further data set relates to PLpro. The following applies: cited from earlier work; for IC50: PLpro.

For orientation: Ki means the equilibrium dissociation constant of an inhibitor or competing ligand from its target. Read a low Ki as a stronger hold on the target. By IC50 is commonly meant the midpoint of a concentration-inhibition curve. A word on the solubility: it is the dissolved amount per volume that the medium holds. Low values mean a poorly soluble substance, high ones a readily soluble substance. As for `Cn1ccc(-c2ccc3nccc(N[C@@H]4CCNC4)c3n2)cc1=O` [Compound 1, Cn1ccc(cc1=O)-c1ccc2nccc(NC3CC[NH2+]C3)c2n1], the CC50 in the data set “in vitro [1]” was determined as 23.8 µM. The CC50 in “in vitro [2]” is over 50 µM. Further, on SARS-CoV-2 PLpro, the Ki is 22.4 ± 6.7 µM, half-maximal inhibition (IC50) was put at 73.6 µM and the inhibition mechanism result is reported as “competitive”. In addition, the “inhibition test in absence and presence of Triton (aggregation check)” value on SARS-CoV-2 PLpro (with or without 0.01% Triton) is reported as “no significant differences”. Also, the concentration in solution in “physchem” (solubility) came to 195 µM (≈ 62.7 µg/mL).

Turning to `CCN(CCNc1nc2ccccc2[nH]1)Cc1cc(Cl)ccc1O` [Compound 2, CCN(CCNc1nc2ccccc2[nH]1)Cc1cc(ccc1O)Cl], 102 µM corresponded to half-maximal inhibition against SARS-CoV-2 PLpro (IC50).

As to `CCN(CC)Cc1cc(Nc2nc3ccccc3[nH]2)ccc1O` [Compound 3, CCN(CC)Cc1cc(ccc1O)Nc1nc2ccccc2[nH]1], the IC50 on SARS-CoV-2 PLpro worked out at 127 µM.

At SARS-CoV-2 PLpro, `NCCNc1nccc2[nH]c(-c3ccc(F)c(F)c3)nc12` [Compound 4, NCCNc1nccc2[nH]c(nc12)-c1ccc(c(c1)F)F] returned an IC50 of 130 µM.

`O=C1CN(C(=O)CNC(=O)c2ccc3c(c2)B(O)OC3)CCN1` [Compound 5, O[B]1OCc2ccc(cc21)C(=O)NCC(=O)N1CCNC(=O)C1] showed an IC50 at SARS-CoV-2 PLpro of 137 µM.

As to `O=C(NCc1cccc(F)c1)c1ncc2ccccn12` [Compound 6, Fc1cccc(CNC(=O)c2ncc3ccccn23)c1], the IC50 against SARS-CoV-2 PLpro is 194 µM.

On to `CN1CCC(Nc2ccnc3ccc(-c4ccc(C(=O)NCCO)nc4)nc23)CC1` [Compound 82, O=C(NCCO)C1=NC=C(C2=NC3=C(N=CC=C3NC4CCN(C)CC4)C=C2)C=C1], for which the CC50 in the data set “in vitro [1]” and in the data set “in vitro [2]” was over 50 µM each time. Besides, on SARS-CoV-2 PLpro, the IC50 is 79.8 ± 20.4 µM. Besides, the concentration in solution in “physchem” (solubility) came to 200 µM (≈ 81.3 µg/mL).

In the case of `CS(=O)(=O)c1cccc(-c2ccc3nccc(N4CCNCC4)c3n2)c1` [Compound 83, O=S(C1=CC=CC(C2=NC3=C(N=CC=C3N4CCNCC4)C=C2)=C1)(C)=O], the CC50 in the data set “in vitro [1]” was 43.6 µM; in “in vitro [2]”, over 50 µM. In addition, the “Microsomal stability, % remaining after 30 min” value in data set [3] was 60.24%; in data set [4], 50.41%. This molecule came in with an IC50 at SARS-CoV-2 PLpro of 54.8 µM. The molecule also yielded a solubility in the data set “physchem” of 180 µM (≈ 66.3 µg/mL).

Take `CNC(=O)c1ccc(-c2ccc3nccc(NC4CCNCC4)c3n2)cn1` [Compound 84, O=C(NC)C1=NC=C(C2=NC3=C(N=CC=C3NC4CCNCC4)C=C2)C=C1]: the results for the CC50 in the data set “in vitro [1]” and in “in vitro [2]” were 47.3 µM and over 50 µM, respectively. This molecule also gave an IC50 on SARS-CoV-2 PLpro of 39.5 ± 4.62 µM. For the same molecule, the solubility in “physchem” worked out at 175 µM (≈ 63.4 µg/mL).

With `COc1ccc(-c2ccc3nccc(N[C@@H]4CCNC4)c3n2)cn1` [Compound 85, COC1=NC=C(C2=NC3=C(N=CC=C3N[C@@H]4CCNC4)C=C2)C=C1], the CC50 in the data set “in vitro [1]” worked out at 7.47 µM; in “in vitro [2]”, 26.3 µM. Further, the figures for the “Microsomal stability, % remaining after 30 min” value in data set [3] and in data set [4] were 66.61% and 62.68%, respectively. Moreover, the “fold improvement in PLpro activity” value at SARS-CoV-2 PLpro (85 compared with 1) came out at 5 fold. The Ki on SARS-CoV-2 PLpro was 22.9 µM and 20.1 µM. Besides, it took 15.1 ± 2.19 µM to reach half-maximal inhibition against SARS-CoV-2 PLpro (IC50). Besides, at SARS-CoV-2 PLpro, the inhibition mechanism result is “competitive”. Besides, the “inhibition test in absence and presence of CHAPS detergent (aggregation check)” value at SARS-CoV-2 PLpro (with and without 1 mM CHAPS) is given as “No significant difference”. Further, the concentration in solution in the data set “physchem” (solubility) was 190 µM (≈ 61.1 µg/mL).

Regarding `Cc1ccc(N)cc1C(=O)N[C@H](C)c1cccc2ccccc12` [GRL0617], in the data set on PLpro, the concentration for half-maximal inhibition (IC50) is […].

`CCn1ccc(-c2cc(-c3cnn(C)c3)cc([C@@H](C)NC(=O)c3cc(OCCN(C)C)ccc3C)c2)n1` [Jun12682]: in the data set with PLpro, the “protease, deubiquitinase, and deISGylase activity of PLpro” value is reported as “inhibited”.

In the case of `S=C(SSC(=S)N1CCOCC1)N1CCOCC1` [RI173], in the data set on PLpro, the IC50 is 0.2 µM.
